# Experimental data taken from PMC4627230, “Identification of TAX2 peptide as a new unpredicted anti-cancer agent” (Oncotarget, 2015).
# Columns and labels:
# CD47 = conditions: ref [43]; cited from earlier work
# Text: In addition to the putative effects that may be due to CD47 association with its co-receptors, TAX2-bound TSP-1 also remains able to bind a wide variety of ligands through the other domains of the multi-modular protein. Among these domains, a central region of TSP-1 called 3TSR (three TSP-1 type 1 repeats) binds to the CD36 membrane receptor, also leading to inhibition of angiogenesis. Indeed, CD36 ligation by TSP-1 is known to induce an anti-angiogenic response by promoting CD36 association with β1 integrin and VEGFR2 dimer in a tripartite complex, resulting in decreased VEGFR2 phosphorylatio ... || Figure 7 TAX2 induces a shift in TSP-1 binding from CD47 to CD36 A. In physiological conditions, most of TSP-1-related effects on vascular function are mediated by TSP-1 carboxy terminal domain interaction with CD47 receptor. B. Under TAX2 treatment preventing TSP-1:CD47 interaction, binding of the 3TSR module of TSP-1 to CD36 receptor is promoted, thus leading to an overall anti-angiogenic response (NTD, N-terminal domain; Col, procollagen-homology domain; CBD, carboxy terminal cell binding domain). TEXT PRINTED IN THE PICTURE: (A) TSP-1: CD36: 1-10 nM; CD47: 10-100 pM DOUBTS OF THE COPYIST A ...
# [1] = system: immobilized TSP-1 (thrombospondin from human platelets); experiment: ELISA binding of biotin-labeled peptides to immobilized TSP-1; conditions: biotin-labeled peptide 10 μg/mL, 3 h, room temperature, 0.5% BSA; absorbance 450 nm; n = 3 in triplicate
# Description: Microtiter plates (Nunc, ThermoFisher Scientific, Courtaboeuf, France) were coated overnight at 4°C with 0.5 μg TSP-1 in sodium carbonate-bicarbonate (BupH) buffer (Thermo Fisher Scientific). Plates were washed with PBS 0.1% BSA (Sigma-Aldrich) and non-specific sites were saturated during 30 min using 1% (w/v) BSA in BupH buffer. Biotin-labeled peptide (10 μg/mL, determined after dose-response assay from 0.01 to 100 μg/mL) was added in buffer containing 0.5% (w/v) BSA and incubated for 3 h at room temperature. Non-labeled peptide (0.001 to 5 mg/mL) was used as selective competitor. Plates were washed with PBS containing 0.1% (w/v) BSA and treated for 30 min with mouse anti-biotin antibody. Bound antibody was quantified using the mouse IgG Elite Vectastain ABC kit (Vector Laboratories) followed by incubation with 1-Step Turbo TMB substrate as a chromogen (ThermoFisher Scientific). The reaction was stopped with 0.5 M H2SO4 and absorbance was read at 450 nm.
substance,measurement,setting,value
TSP-1: multimodular protein secreted as a disulfide-linked 450 kDa homotrimer,binding affinity for CD47 compared to CD36,CD47,higher compared to CD36 binding
"LSVDESKAQGIL [scrambled peptide, scrambled dodecapeptide used as a control (…), reference compound]",binding to immobilized TSP-1,[1],does not
